According to patent US20060094719A1, “Tetralin histamine-3 receptor antagonists” (Pfizer Inc, priority 2004, published 2006):
pKi: −log10 of the molar value.

Test system: not given
Test: not given
Settings: not given

| melting point | SMILES |
| --- | --- |
| 286.6 to 286.8 °C | Cl.c1cc2c(cc1OCCCN1CCCCC1)CCC(CN1CCCC1)C2 (single isomer, unassigned; (-)) [10 (−), (−)-1-[3-(6-Pyrrolidin-1-ylmethyl-5,6,7,8-tetrahydro-naphthalen-2-yloxy)-propyl]-piperidine hydrochloride] |
| 149.4 to 150.5 °C | Cl.c1cc2c(cc1OCCCN1CCCC1)CCC(CN1CCCC1)C2 (racemic) [6 (±), (±)-1-[3-(6-Pyrrolidin-1-ylmethyl-5,6,7,8-tetrahydro-naphthalen-2-yloxy)-propyl]-pyrrolidine hydrochloride] |
| 281.8 to 282.7 °C | Cl.c1cc2c(cc1OCCCN1CCOCC1)CCC(CN1CCCC1)C2 (stereo not drawn) [11] |
| 256.6 to 258.4 °C | Cl.c1cc2c(cc1OCCCN1CCCCC1)CCC(CN1CCCC1)C2 (stereo not drawn) [12] |
| 265.5 to 266.8 °C | Cl.Cl.c1cc2c(cc1OCCN1CCCCC1)CCC(CN1CCCC1)C2 (single isomer, unassigned; (-)) [92 (−), (−)-1-[2-(6-Pyrrolidin-1-ylmethyl-5,6,7,8-tetrahydro-naphthalen-2-yloxy)-ethyl]-piperidine dihydrochloride] |
| 180 to 181.4 °C | c1cc2c(cc1OCCCN1CCCCC1)CCC(CN1CCCC1)C2 (racemic) [3 (±), (±)-1-[3-(6-Pyrrolidin-1-ylmethyl-5,6,7,8-tetrahydro-naphthalen-2-yloxy)-propyl]-piperidine] |
| 291.5 to 292.9 °C | Cl.c1cc2c(cc1OCCCNC1CCC3(CCCCC3)CC1)CCC(CN1CCCC1)C2 (single isomer, unassigned; (-)) [16 (−), (−)-[3-(6-Pyrrolidin-1-ylmethyl-5,6,7,8-tetrahydro-naphthalen-2-yloxy)-propyl]-spiro[5.5]undec-3-ylamine hydrochloride] |
| 211 to 213 °C | Cl.NC(=O)C1CCN(CCCOc2ccc3c(c2)CCC(CN2CCCC2)C3)CC1 (racemic) |
| 249.6 to 250.4 °C | Cl.c1cc2c(cc1OCCCN1CCOCC1)CCC(CN1CCCC1)C2 (stereo not drawn) [14] |
| 131.6 to 132.8 °C | CN(C)CCOc1ccc2c(c1)CCC(CN1CCCC1)C2.Cl (racemic) |
| 287.6 to 290.2 °C | Cl.c1cc2c(cc1OCCCN1CCC3(CCCCC3)CC1)CCC(CN1CCCC1)C2 (stereo not drawn) |
| 187.7 to 188.7 °C | CN(C)CCCOc1ccc2c(c1)CCC(CN1CCCC1)C2.Cl (racemic) [1] |
| 202 to 204 °C | CC1(C)CCCN(CCCOc2ccc3c(c2)CCC(CN2CCCC2)C3)C1.Cl (single isomer, unassigned; (-)) [15 (−), (−)-3,3-Dimethyl-1-[3-(6-pyrrolidin-1-ylmethyl-5,6,7,8-tetrahydro-naphthalen-2-yloxy)-propyl]-piperidine hydrochloride] |
| 265.4 to 266.3 °C | Cl.c1cc2c(cc1OCCCNC1CC3CCC1C3)CCC(CN1CCCC1)C2 (stereo not drawn) |
| 284.8 °C (dec.) | Cl.c1cc2c(cc1OCCCN1CCC(N3CCCCC3)CC1)CCC(CN1CCCC1)C2 (racemic) [7 (±), (±)-1′-[3-(6-Pyrrolidin-1-ylmethyl-5,6,7,8-tetrahydro-naphthalen-2-yloxy)-propyl]-[1,4′]bi-piperidinyl hydrochloride] |
| 255.4 to 256.4 °C | Cl.c1cc2c(cc1OCCCN1CCOCC1)CCC(CN1CCCC1)C2 (stereo not drawn) [5] |
| 102 to 103.2 °C | NC(=O)C1CCCN(CCCOc2ccc3c(c2)CCC(CN2CCCC2)C3)C1 (racemic) [Example 9, (±)-1-[3-(6-Pyrrolidin-1-ylmethyl-5,6,7,8-tetrahydro-naphthalen-2-yloxy)-propyl]-piperidine-3-carboxylic acid amide] |
| 230.6 to 232.8 °C | CN(C)CCCOc1ccc2c(c1)CCC(CN1CCCC1)C2.Cl (stereo not drawn) [13] |
| 259.9 to 261.4 °C | Cl.c1cc2c(cc1OCCCN1CCOCC1)CCC(CN1CCCC1)C2 (racemic) [4] |

Molecular target: T1, rat histamine H3 receptors (Rattus norvegicus, UniProt Q9QYN8)
T1 construct: Frozen rat frontal brain or frozen human post-mortem frontal brain is homogenized; from tissue; host or cells: rat frontal brain membranes
T1 sequence (Q9QYN8 whole entry): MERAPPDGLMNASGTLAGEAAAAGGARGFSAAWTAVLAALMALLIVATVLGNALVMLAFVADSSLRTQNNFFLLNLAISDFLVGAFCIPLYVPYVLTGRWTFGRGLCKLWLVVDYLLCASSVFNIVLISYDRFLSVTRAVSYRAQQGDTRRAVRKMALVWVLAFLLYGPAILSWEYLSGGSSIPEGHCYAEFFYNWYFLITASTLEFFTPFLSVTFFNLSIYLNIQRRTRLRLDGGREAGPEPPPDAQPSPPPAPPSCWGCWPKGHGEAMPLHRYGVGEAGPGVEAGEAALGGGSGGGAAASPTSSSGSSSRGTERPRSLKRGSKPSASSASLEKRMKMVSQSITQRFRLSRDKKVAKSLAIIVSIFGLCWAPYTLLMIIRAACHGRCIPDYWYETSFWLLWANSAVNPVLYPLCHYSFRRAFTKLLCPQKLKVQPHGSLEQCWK
Test: Rat H3 binding, 3H-N-methylhistamine displacement in frontal brain membranes
Settings: radioligand 1 nM 3H-N-methylhistamine, 1-hour incubation
Experimental: The in vitro affinity of the compounds in the present invention at the rat or human histamine H3 receptors can be determined according to the following procedure. Frozen rat frontal brain or frozen human post-mortem frontal brain is homogenized in 20 volumes of cold 50 mM Tris.HCl containing 2 mM MgCl2 (pH to 7.4 at 4° C.). The homogenate is then centrifuged at 45,000 G for 10 minutes. The supernatant is decanted and the membrane pellet re-suspended by Polytron in cold 50 mM Tris.HCl containing 2 mM MgCl2 (pH to 7.4 at 4 degrees C.) and centrifuged again. The final pellet is re-suspended in 50 mM Tris HCl containing 2 mM MgCl2 (pH to 7.4 at 25 degrees C.) at a concentration of 12 mg/mL. Dilutions of compounds are made in 10% DMSO/50 mM Tris buffer (pH 7.4) (at 10×final concentration, so that the final DMSO concentration is 1%). Incubations are initiated by the addition of membranes (200 microliters) to 96-well V-bottom polypropylene plates containing 25 microliters of drug dilutions and 25 microliters of radioligand (1 nM final concentration ^3H-N-methylhistamine). After a 1-hour incubation, assay samples are rapidly filtered through Whatman GF/B filters and rinsed with ice-cold 50 mM Tris buffer (pH 7.4) using a Skatron cell harvester. Radioactivity is quantified using a BetaPlate scintillation counter.

| pKi | SMILES |
| --- | --- |
| 8.23 | CC1CCCCN1CCCOc1ccc2c(c1)CCC(CN1CCCC1)C2 (single isomer, unassigned; (-)) [41 (−), (−)-2-Methyl-1-[3-(6-pyrrolidin-1-ylmethyl-5,6,7,8-tetrahydro-naphthalen-2-yloxy)-propyl]-piperidine] |
| 8.96 | Cl.c1cc2c(cc1OCCCN1CCCCC1)CCC(CN1CCCC1)C2 (single isomer, unassigned; (-)) [10 (−), (−)-1-[3-(6-Pyrrolidin-1-ylmethyl-5,6,7,8-tetrahydro-naphthalen-2-yloxy)-propyl]-piperidine hydrochloride] |
| 8.68 | c1cc2c(cc1OCCCN1CC3CCCC1C3)CCC(CN1CCCC1)C2 (single isomer, unassigned; (-)) [65 (−), (−)-6-[3-(6-Pyrrolidin-1-ylmethyl-5,6,7,8-tetrahydro-naphthalen-2-yloxy)-propyl]-6-azabicyclo-[3.2.1]octane] |
| 8.04 | CC1CC(C)CN(CCCOc2ccc3c(c2)CCC(CN2CCCC2)C3)C1 (single isomer, unassigned; (-)) [81 (−), (−)-3,5-Dimethyl-1-[3-(6-pyrrolidin-1-ylmethyl-5,6,7,8-tetrahydro-naphthalen-2-yloxy)-propyl]-piperidine] |
| 8.05 | Cl.c1cc2c(cc1OCCCN1CCCC1)CCC(CN1CCCC1)C2 (racemic) [6 (±), (±)-1-[3-(6-Pyrrolidin-1-ylmethyl-5,6,7,8-tetrahydro-naphthalen-2-yloxy)-propyl]-pyrrolidine hydrochloride] |
| 8.35 | CN(CCCOc1ccc2c(c1)CCC(CN1CCCC1)C2)Cc1ccco1 (single isomer, unassigned; (-)) [55 (−), (−)-Furan-2-ylmethyl-[3-(6-pyrrolidin-1-ylmethyl-5,6,7,8-tetrahydro-naphthalen-2-yloxy)-propyl]-methylamine] |
| 7.95 | Cl.Cl.c1cc2c(cc1OCCN1CCCCC1)CCC(CN1CCCC1)C2 (single isomer, unassigned; (-)) [92 (−), (−)-1-[2-(6-Pyrrolidin-1-ylmethyl-5,6,7,8-tetrahydro-naphthalen-2-yloxy)-ethyl]-piperidine dihydrochloride] |
| 8.08 | c1cc2c(cc1OCCCN1CCCCC1)CCC(CN1CCCC1)C2 (racemic) [3 (±), (±)-1-[3-(6-Pyrrolidin-1-ylmethyl-5,6,7,8-tetrahydro-naphthalen-2-yloxy)-propyl]-piperidine] |
| 8.08 | CC1CCCN(CCCOc2ccc3c(c2)CCC(CN2CCCC2)C3)C1 (single isomer, unassigned; (+)) [40 (+), (+)-3-Methyl-1-[3-(6-pyrrolidin-1-ylmethyl-5,6,7,8-tetrahydro-naphthalen-2-yloxy)-propyl]-piperidine] |
| 8.14 | Cl.c1cc2c(cc1OCCCNC1CCC3(CCCCC3)CC1)CCC(CN1CCCC1)C2 (single isomer, unassigned; (-)) [16 (−), (−)-[3-(6-Pyrrolidin-1-ylmethyl-5,6,7,8-tetrahydro-naphthalen-2-yloxy)-propyl]-spiro[5.5]undec-3-ylamine hydrochloride] |
| 8.21 | CC(CN1CCOCC1)NCCCOc1ccc2c(c1)CCC(CN1CCCC1)C2 (single isomer, unassigned; (-)) [51 (−), (−)-(1-Methyl-2-morpholin-4-ylethyl)-[3-(6-pyrrolidin-1-ylmethyl-5,6,7,8-tetrahydro-naphthalen-2-yloxy)-propyl]-amine] |
| 8.90 | Fc1ccc(CNCCCOc2ccc3c(c2)CCC(CN2CCCC2)C3)cc1 (single isomer, unassigned; (-)) [32 (−), (−)-(4-Fluorobenzyl)-[3-(6-pyrrolidin-1-ylmethyl-5,6,7,8-tetrahydro-naphthalen-2-yloxy)-propyl]-amine] |
| 8.02 | Fc1ccc(C2CCCN2CCCOc2ccc3c(c2)CCC(CN2CCCC2)C3)cc1 (single isomer, unassigned; (+)) [71 (+), (+)-2-(4-Fluorophenyl)-1-[3-(6-pyrrolidin-1-ylmethyl-5,6,7-8-tetrahydro-naphthalen-2-yloxy)-propyl]-pyrrolidine] |
| 8.30 | CC1(C)CCCN(CCCOc2ccc3c(c2)CCC(CN2CCCC2)C3)C1.Cl (single isomer, unassigned; (-)) [15 (−), (−)-3,3-Dimethyl-1-[3-(6-pyrrolidin-1-ylmethyl-5,6,7,8-tetrahydro-naphthalen-2-yloxy)-propyl]-piperidine hydrochloride] |
| 8.71 | Fc1ccc(CNCCCOc2ccc3c(c2)CCC(CN2CCCC2)C3)cc1F (single isomer, unassigned; (-)) [77 (−), (−)-(3,4-Difluorobenzyl)-[3-(6-pyrrolidin-1-ylmethyl-5,6,7,8-tetrahydro-naphthalen-2-yloxy)-propyl]-amine] |
| 8.80 | Clc1ccc(CNCCCOc2ccc3c(c2)CCC(CN2CCCC2)C3)cc1Cl (single isomer, unassigned; (-)) [27 (−), (−)-(3,4-Dichlorobenzyl)-[3-(6-pyrrolidin-1-ylmethyl-5,6,7,8-tetrahydro-naphthalen-2-yloxy)-propyl]-amine] |
| 8.33 | c1ccc(CNCCCOc2ccc3c(c2)CCC(CN2CCCC2)C3)cc1 (single isomer, unassigned; (-)) [28 (−), (−)-Benzyl-[3-(6-pyrrolidin-1-ylmethyl-5,6,7,8-tetrahydro-naphthalen-2-yloxy)-propyl]-amine] |
| 8.72 | Clc1ccc(CNCCCOc2ccc3c(c2)CCC(CN2CCCC2)C3)c(Cl)c1 (single isomer, unassigned; (-)) [79 (−), (−)-(2,4-Dichlorobenzyl)-[3-(6-pyrrolidin-1-ylmethyl-5,6,7,8-tetrahydro-naphthalen-2-yloxy)-propyl]-amine] |
| 8.52 | Cl.c1cc2c(cc1OCCCN1CCC(N3CCCCC3)CC1)CCC(CN1CCCC1)C2 (racemic) [7 (±), (±)-1′-[3-(6-Pyrrolidin-1-ylmethyl-5,6,7,8-tetrahydro-naphthalen-2-yloxy)-propyl]-[1,4′]bi-piperidinyl hydrochloride] |
| 9.08 | Clc1ccc(CNCCCOc2ccc3c(c2)CCC(CN2CCCC2)C3)cc1 (single isomer, unassigned; (-)) [24 (−), (−)-(4-Chlorobenzyl)-[3-(6-pyrrolidin-1-ylmethyl-5,6,7,8-tetrahydro-naphthalen-2-yloxy)-propyl]-amine] |
| 8.36 | c1cc2c(cc1OCCCNC1CCCCC1)CCC(CN1CCCC1)C2 (single isomer, unassigned; (-)) [64 (−), (−)-[3-(6-pyrrolidin-1-ylmethyl-5,6,7,8-tetrahydro-naphthalen-2-yloxy)-propyl]-cyclohexyl-amine] |
| 8.36 | CC1CCN(CCCOc2ccc3c(c2)CCC(CN2CCCC2)C3)CC1 (single isomer, unassigned; (-)) [42 (−), (−)-4-Methyl-1-[3-(6-pyrrolidin-1-ylmethyl-5,6,7,8-tetrahydro-naphthalen-2-yloxy)-propyl]-piperidine] |
| 8.45 | CC1CCCN(CCCOc2ccc3c(c2)CCC(CN2CCCC2)C3)C1 (single isomer, unassigned; (-)) [40 (−), (−)-3-Methyl-1-[3-(6-pyrrolidin-1-ylmethyl-5,6,7,8-tetrahydro-naphthalen-2-yloxy)-propyl]-piperidine] |
